Assay results from patent publication US20160244728A1, “CULTURE METHOD FOR PLURIPOTENT STEM CELLS AND KIT AND MEDIUM FOR CULTURE OF PLURIPOTENT STEM CELLS USED THEREIN” (FUJIFILM Corporation, priority 2013, published 2016).

Tests used:
human iPS cells [1] = experiment: Cell adhesiveness evaluation 2 (synthetic polypeptides added to cells seeded on natural vitronectin); type: cell-based; conditions: 100 μM synthetic polypeptide
Description: The polypeptides shown in Table 7 were synthesized by an Fmoc solid-phase synthesis method. A surface onto which natural vitronectin was adsorbed at a concentration of 130 pmol/cm^2 was prepared, and then a cell suspension to which 100 μM of the aforementioned synthetic polypeptides were added was seeded into wells at a ratio of 30,000 cells/well. The number of adhesive cells 24 hours after seeding was calculated in the same manner as in <Cell adhesiveness evaluation 1>, and the results are shown in Table 7. In Table 7, the cell adhesion rate is expressed as a relative value calculated by regarding the cell adhesion rate obtained by using a culture solution not containing the synthetic polypeptides as being 100%. n=3.

human iPS cells [2] = experiment: Growth evaluation in Essential 8 medium with magnesium ascorbyl phosphate; type: cell-based; conditions: for number of growing cells depending on the concentration of magnesium ascorbyl phosphate (in words): Tables 10 to 13; for Number of cells after 3 days (%): n=3
Description: The growth of cells was evaluated in the same manner as in Reference example 5.
Magnesium ascorbyl phosphate was added to a medium. […] The samples were adsorbed onto a 96-well plate, and the iPS cells collected in the same manner as in <Cell adhesiveness evaluation 1> were seeded into the plate at a ratio of 1×10^4 cells/well and cultured for 3 days in a 5% CO2 incubator at 37° C. The number of cells after 3 days was measured in the same manner as in <Cell adhesiveness evaluation 1>. Furthermore, by using VTN-N (manufactured by Life Technologies) and Vitronectin-XF (manufactured by Primorigen Biosciences), the growth of the cells was evaluated in the same manner.
The results obtained from RCP-17 are shown in Table 10, the results obtained from Human Recombinant Laminin-511 are shown in Table 11, the results obtained from VTN-N (manufactured by Life Technologies) are shown in Table 12, and the results obtained from Vitronectin-XF (manufactured by Primorigen Biosciences) are shown in Table 13. In Tables 10 and 11, the number of cells is expressed as a relative value calculated by regarding the number of cells at the concentration of magnesium ascorbyl phosphate of 0.8 mmol/L as being 100. n=3.

[3] = Evaluation of adsorbability with respect to culture dish; type: physicochemical; conditions: FIG. 1
Description: Each of the polypeptides obtained as above was diluted with a predetermined buffer such that they could be added to wells at a predetermined final concentration of 0 pmol/cm^2 to 200 pmol/cm^2. Thereafter, each of the polypeptides was added in an amount of 64 μL to a plasma-treated 96-well plate made of polystyrene (Tissue Culture-Treated, Falcon). Each of the polypeptides was allowed to adsorb onto the plate by being incubated for 2 hours at 37° C., and then the wells were washed twice with PBS, thereby obtaining surfaces coated with each of the polypeptides of RCP-1 to RCP-16.
Among the surfaces coated with each of the polypeptides obtained as above, the surfaces coated with RCP-1 and RCP-11 to RCP-16 were applied with 64 μL of a borate buffer and 64 μL of 1 N NaOH, followed by incubation for 24 hours at 80° C. and 100% humidity. After the resultant was air-cooled, 75 μL of a borate buffer was added to each well, and 50 μL of a reaction solution obtained by mixing OPA (o-phthalaldehyde: Wako Pure Chemical Industries, Ltd./methanol solution (160 mg/ml)) with N-acetyl-L-cysteine (NAC: Wako Pure Chemical Industries, Ltd.)/borate buffer solution (2 mg/ml) at a ratio of 1:100 (mass ratio) was further added thereto. After incubation for 30 minutes at 40° C., the fluorescence intensity thereof was measured by using an Envision Multilabel Counter (PerkinElmer Inc.) (excitation 355 nm/fluorescence 486 nm). A calibration curve was separately prepared from each of the polypeptide solutions so as to calculate the amount of the polypeptide adsorbed. In FIG. 1, a black rhombus indicates RCP-1, a black square indicates RCP-11, a black triangle indicates RCP-12, a black circle indicates RCP-13, a white rhombus indicates RCP-14, a white square indicates RCP-15, and a white triangle indicates RCP-16.

human iPS cells [4] = experiment: Evaluation of maintenance of undifferentiated state; type: cell-based
Description: iPS cells collected in the same manner as in <Cell adhesiveness evaluation 1> were suspended in TeSR2. The iPS cells were seeded into 6-well plate (Tissue culture-treated, Falcon), onto which each of the samples 1, 2, 5, 6, and 7 used in <Cell adhesiveness evaluation 1> was adsorbed in the same manner as in <Cell adhesiveness evaluation 1>, and cultured in a CO2 incubator at 37° C. Except for the day after the seeding, the medium was replaced every day. In the same method as described above, the cells were subcultured every six days. FIGS. 3A to 3E show forms of the iPS cells cultured on each of the samples.
After being cultured for 1 month under the conditions described above, the cells were immobilized using 4% paraformaldehyde and treated with 1% Triton-X/PBS so as to enhance the membrane permeability. After the cells were subjected to a blocking treatment using an Image IT Signal Enhancer (Invitrogen), an anti-human NANOG antibody (AF 1997, R&D Systems, Inc.), an Alexa Fluor 555 binding rabbit anti-goat IgG antibody (Invitrogen), and DAPI (Dojindo Molecular Technologies, Inc.) were added thereto for labeling, and the cells were imaged using a fluorescence microscope. FIGS. 4A to 4E show the fluorescence microscopic images.
FIGS. 3A and 4A show the iPS cells cultured on RCP-1; FIGS. 3B and 4B show the iPS cells cultured on RCP-11; FIGS. 3C and 4C show the iPS cells cultured on natural human vitronectin; FIGS. 3D and 4D show the iPS cells cultured on rLaminin-5; and FIGS. 3E and 4E show the iPS cells cultured on rLaminin-511. The scale bar in the images indicates 100 μm. In FIGS. 3A to 3E, the images on the left side are full images of the colony, and the images on the right side are magnified images. In FIGS. 4A to 4E, the images on the left side are images of the cells stained with DAPI, and the images on the right side are images of the cells stained with an anti-NANOG antibody. The scale bar in FIGS. 3 and 4 indicates 200 μm.

## CCTDYTAECKPQVTRGDVFT [Peptide-5, polypeptide synthesized by an Fmoc solid-phase synthesis method]
Human iPS cells [1]
  adhesion of cells to the natural vitronectin on addition of the peptide (in words): significantly hindered

## CCTDYTAECKPQVTRGEVFT [Peptide-7]
Human iPS cells [1]
  adhesion of cells to the natural vitronectin on addition of the peptide (in words): not hindered

## DKKCQCDELCSYYQSCCTDY [Peptide-4, polypeptide synthesized by an Fmoc solid-phase synthesis method]
Human iPS cells [1]
  adhesion of cells to the natural vitronectin on addition of the peptide (in words): significantly hindered

## DQESCKGRCTEGFNVDKKCQ [Peptide-1, polypeptide synthesized by an Fmoc solid-phase synthesis method]
Human iPS cells [1]
  adhesion of cells to the natural vitronectin on addition of the peptide (in words): not hindered

## EGFNVDKKCQCDELCSYYQS [Peptide-3, polypeptide synthesized by an Fmoc solid-phase synthesis method]
Human iPS cells [1]
  adhesion of cells to the natural vitronectin on addition of the peptide (in words): not hindered

## KGRCTEGFNVDKKCQCDELC [Peptide-2, polypeptide synthesized by an Fmoc solid-phase synthesis method]
Human iPS cells [1]
  adhesion of cells to the natural vitronectin on addition of the peptide (in words): not hindered

## Laminin-511: recombinant laminin (Human Recombinant Laminin-511: BIOLAMINA AB), control
Human iPS cells [2]
  number of growing cells depending on the concentration of magnesium ascorbyl phosphate (in words): does not depend
Human iPS cells [2]; magnesium ascorbyl phosphate 0.2 mmol/L, added amount 20 μg/cm^3, Table 11, relative to 0.8 mmol/L = 100
  Number of cells after 3 days (%): 61%
Human iPS cells [2]; magnesium ascorbyl phosphate 0.5 mmol/L, added amount 20 μg/cm^3, Table 11, relative to 0.8 mmol/L = 100
  Number of cells after 3 days (%): 79%
Human iPS cells [2]; magnesium ascorbyl phosphate 0.8 mmol/L, added amount 20 μg/cm^3, Table 11, reference = 100
  Number of cells after 3 days (%): 100%
Human iPS cells [2]; magnesium ascorbyl phosphate 1.6 mmol/L, added amount 20 μg/cm^3, Table 11, relative to 0.8 mmol/L = 100
  Number of cells after 3 days (%): 90%
Human iPS cells [2]; magnesium ascorbyl phosphate 3.7 mmol/L, added amount 20 μg/cm^3, Table 11, relative to 0.8 mmol/L = 100
  Number of cells after 3 days (%): 114%
Human iPS cells [2]; magnesium ascorbyl phosphate 9.1 mmol/L, added amount 20 μg/cm^3, Table 11, relative to 0.8 mmol/L = 100
  Number of cells after 3 days (%): 100%
Human iPS cells [2]; magnesium ascorbyl phosphate 18.1 mmol/L, added amount 20 μg/cm^3, Table 11, relative to 0.8 mmol/L = 100
  Number of cells after 3 days (%): 112%

## RCP-14: recombinant polypeptide, human vitronectin positions 1-55 (GPLGDQESCKGRCTEGFNVDKKCQCDELCSYYQSCCTDYTAECKPQVTRGDVFTMPEDE; Synthetic Peptide RCP-14)
[3]
  amount adsorbed onto the plate relative to the polypeptide including SEQ ID NO: 3: about 1/4

## TAECKPQVTRGDVFTMPEDE [Peptide-6, polypeptide synthesized by an Fmoc solid-phase synthesis method]
Human iPS cells [1]
  adhesion of cells to the natural vitronectin on addition of the peptide (in words): significantly hindered

## TAECKPQVTRGEVFTMPEDE [Peptide-8]
Human iPS cells [1]
  adhesion of cells to the natural vitronectin on addition of the peptide (in words): not hindered

B1: Natural vitronectin: human vitronectin (extracted from human serum, BD Biosciences), control (protein, listed as Homo sapiens)
chain: DQESCKGRCTEGFNVDKKCQCDELCSYYQSCCTDYTAECKPQVTRGDVFTMPEDEYTVYDDGEEKNNATVHEQVGGPSLTSDLQAQSKGNPEQTPVLKPEEEAPAPEVGASKPEGIDSRPETLHPGRPQPPAEEELCSGKPFDAFTDLKNGSLFAFRGQYCYELDEKAVRPGYPKLIRDVWGIEGPIDAAFTRINCQGKTYLFKGSQYWRFEDGVLDPDYPRNISDGFDGIPDNVDAALALPAHSYSGRERVYFFKGKQYWEYQFQHQPSQEECEGSSLSAVFEHFAMMQRDSWEDIFELLFWGRTSAGTRQPQFISRDWHGVPGQVDAAMAGRIYISGMAPRPSLAKKQRFRHRNRKGYRSQRGHSRGRNQNSRRPSRATWLSLFSSEESNLGANNYDDYRMDWLVPATCEPIQSVFFFSGDKYYRVNLRTRRVDTVDPPYPRSIAQYWLGCPAPGHL
Human iPS cells [4]; FIGS. 3A to 3E, TeSR2, subcultured every six days
  form of the iPS cell colony: form specific to undifferentiated cells
Human iPS cells [4]; FIGS. 4A to 4E, after culture for 1 month
  maintenance of the undifferentiated state (NANOG staining): strongly expressed NANOG in the entirety of the colony

B2: RCP-17: recombinant polypeptide, human vitronectin positions 1-55, 269-277, 295-341, 342-373, C274S (protein)
chain: MDQESCKGRCTEGFNVDKKCQCDELCSYYQSCCTDYTAECKPQVTRGDVFTMPEDESQEESEGSEDIFELLFWGRTSAGTRQPQFISRDWHGVPGQVDAAMAGRIYISGMAPRPSLAKKQRFRHRNRKGYRSQRGHSRGRNQN
modifications: Synthetic Peptide RCP-17
notes: recombinant polypeptide, human vitronectin positions 1-55, 269-277, 295-341, 342-373, C274S
Human iPS cells [2]
  number of growing cells depending on the concentration of magnesium ascorbyl phosphate (in words): increases
Human iPS cells [2]; magnesium ascorbyl phosphate 0.2 mmol/L, added amount 100 μg/cm^3, 1×10^4 cells/well, relative to 0.8 mmol/L = 100
  Number of cells after 3 days (%): 114%
Human iPS cells [2]; magnesium ascorbyl phosphate 0.5 mmol/L, added amount 100 μg/cm^3, 1×10^4 cells/well, relative to 0.8 mmol/L = 100
  Number of cells after 3 days (%): 98%
Human iPS cells [2]; magnesium ascorbyl phosphate 0.8 mmol/L, added amount 100 μg/cm^3, 1×10^4 cells/well, reference = 100
  Number of cells after 3 days (%): 100%
Human iPS cells [2]; magnesium ascorbyl phosphate 1.6 mmol/L, added amount 100 μg/cm^3, 1×10^4 cells/well, relative to 0.8 mmol/L = 100
  Number of cells after 3 days (%): 145%
Human iPS cells [2]; magnesium ascorbyl phosphate 3.7 mmol/L, added amount 100 μg/cm^3, 1×10^4 cells/well, relative to 0.8 mmol/L = 100
  Number of cells after 3 days (%): 219%
Human iPS cells [2]; magnesium ascorbyl phosphate 9.1 mmol/L, added amount 100 μg/cm^3, 1×10^4 cells/well, relative to 0.8 mmol/L = 100
  Number of cells after 3 days (%): 212%
Human iPS cells [2]; magnesium ascorbyl phosphate 18.1 mmol/L, added amount 100 μg/cm^3, 1×10^4 cells/well, relative to 0.8 mmol/L = 100
  Number of cells after 3 days (%): 204%
Human iPS cells [2]; magnesium ascorbyl phosphate 36.0 mmol/L, added amount 100 μg/cm^3, 1×10^4 cells/well, relative to 0.8 mmol/L = 100
  Number of cells after 3 days (%): 230%
